Read-outs that look alike come from different tables or passages of the source. Each block holds one compound with its values, some of them ahead of it.
Biological target: T1, CFTR (Homo sapiens, UniProt P13569, DEL508-508)
T1 construct: endogenous in cells; host or cells: primary human bronchial epithelial cells from CF subjects (F508del/MF-HBE), differentiated at air-liquid interface
Experiment: HBE assay: Ussing chamber assay of CFTR-mediated short-circuit currents
Format: cell-based
Experimental: 1. Ussing Chamber Assay of CFTR-Mediated Short-Circuit Currents
(§1) Ussing chamber experiments were performed using human bronchial epithelial (HBE) cells derived from CF subjects heterozygous for F508del and a minimal function CFTR mutation (F508del/MF-HBE) and cultured as previously described (Neuberger T, Burton B, Clark H, Van Goor F Methods Mol Biol 2011:741:39-54). After four days the apical media was removed, and the cells were grown at an air liquid interface for >14 days prior to use.
(§2) To isolate the CFTR-mediated short-circuit (ISC) current, F508del/MF-HBE grown on Costar® Snapwell™ cell culture inserts were mounted in an Ussing chamber and the transepithelial ISC was measured under voltage-clamp recording conditions (Vhold=0 mV) at 37° C. The basolateral solution contained (in mM) 145 NaCl, 0.83 K2HPO4, 3.3 KH2PO4, 1.2 MgCl2, 1.2 CaCl2), 10 Glucose, 10 HEPES (pH adjusted to 7.4 with NaOH) and the apical solution contained (in mM) 145 NaGluconate, 1.2 MgCl2, 1.2 CaCl2), 10 glucose, 10 HEPES (pH adjusted to 7.4 with NaOH) and 30 μM amiloride to block the epithelial sodium channel. Forskolin (20 μM) was added to the apical surface to activate CFTR, followed by apical addition of a CFTR inhibitor cocktail consisting of BPO, GlyH-101, and CFTR inhibitor 172 (each at 20 μM final assay concentration) to specifically isolate CFTR currents. The CFTR-mediated ISC (μA/cm^2) for each condition was determined from the peak forskolin response to the steady-state current following inhibition.
2. Identification of Corrector Compounds
The activity of the CFTR corrector compounds on the CFTR-mediated ISC was determined in Ussing chamber studies as described above. The F508del/MF-HBE cell cultures were either incubated with the corrector compounds at a range of concentrations in combination with 1 μM Ivacaftor or were incubated with the corrector compounds at a single fixed concentration of 10 μM in combination with 1 μM Ivacaftor for 18-24 hours at 37° C. and in the presence of 20% human serum. The concentration of corrector compounds with 1 μM Ivacaftor during the 18-24 hours incubations was kept constant throughout the Ussing chamber measurement of the CFTR-mediated ISC to ensure compounds were present throughout the entire experiment.
Ussing Chamber Assay of CFTR-mediated short-circuit currents
as §1, with “(HIBE)” for “(HBE)”, “(F508del/MIF-HIBE)” for “(F508del/MF-HBE)”
as §2, with “KH2PO4,” for “K2HPO4,”
Identification of Corrector Compounds

[1] = Table 11, at 10 μM, read-out: HBE Activity at 10 μM (%)
[2] = Table 11, read-out: HBE Max Activity (%)
[3] = Table 10, read-out: HBE Max activity (%)
[4] = HBE assay, read-out: HBE Max activity (%)
[5] = HBE assay, 10 μM, read-out: HBE Activity at 10 μM (%)

T1 sequence (P13569 with tags, fused parts or gaps DEL508-508): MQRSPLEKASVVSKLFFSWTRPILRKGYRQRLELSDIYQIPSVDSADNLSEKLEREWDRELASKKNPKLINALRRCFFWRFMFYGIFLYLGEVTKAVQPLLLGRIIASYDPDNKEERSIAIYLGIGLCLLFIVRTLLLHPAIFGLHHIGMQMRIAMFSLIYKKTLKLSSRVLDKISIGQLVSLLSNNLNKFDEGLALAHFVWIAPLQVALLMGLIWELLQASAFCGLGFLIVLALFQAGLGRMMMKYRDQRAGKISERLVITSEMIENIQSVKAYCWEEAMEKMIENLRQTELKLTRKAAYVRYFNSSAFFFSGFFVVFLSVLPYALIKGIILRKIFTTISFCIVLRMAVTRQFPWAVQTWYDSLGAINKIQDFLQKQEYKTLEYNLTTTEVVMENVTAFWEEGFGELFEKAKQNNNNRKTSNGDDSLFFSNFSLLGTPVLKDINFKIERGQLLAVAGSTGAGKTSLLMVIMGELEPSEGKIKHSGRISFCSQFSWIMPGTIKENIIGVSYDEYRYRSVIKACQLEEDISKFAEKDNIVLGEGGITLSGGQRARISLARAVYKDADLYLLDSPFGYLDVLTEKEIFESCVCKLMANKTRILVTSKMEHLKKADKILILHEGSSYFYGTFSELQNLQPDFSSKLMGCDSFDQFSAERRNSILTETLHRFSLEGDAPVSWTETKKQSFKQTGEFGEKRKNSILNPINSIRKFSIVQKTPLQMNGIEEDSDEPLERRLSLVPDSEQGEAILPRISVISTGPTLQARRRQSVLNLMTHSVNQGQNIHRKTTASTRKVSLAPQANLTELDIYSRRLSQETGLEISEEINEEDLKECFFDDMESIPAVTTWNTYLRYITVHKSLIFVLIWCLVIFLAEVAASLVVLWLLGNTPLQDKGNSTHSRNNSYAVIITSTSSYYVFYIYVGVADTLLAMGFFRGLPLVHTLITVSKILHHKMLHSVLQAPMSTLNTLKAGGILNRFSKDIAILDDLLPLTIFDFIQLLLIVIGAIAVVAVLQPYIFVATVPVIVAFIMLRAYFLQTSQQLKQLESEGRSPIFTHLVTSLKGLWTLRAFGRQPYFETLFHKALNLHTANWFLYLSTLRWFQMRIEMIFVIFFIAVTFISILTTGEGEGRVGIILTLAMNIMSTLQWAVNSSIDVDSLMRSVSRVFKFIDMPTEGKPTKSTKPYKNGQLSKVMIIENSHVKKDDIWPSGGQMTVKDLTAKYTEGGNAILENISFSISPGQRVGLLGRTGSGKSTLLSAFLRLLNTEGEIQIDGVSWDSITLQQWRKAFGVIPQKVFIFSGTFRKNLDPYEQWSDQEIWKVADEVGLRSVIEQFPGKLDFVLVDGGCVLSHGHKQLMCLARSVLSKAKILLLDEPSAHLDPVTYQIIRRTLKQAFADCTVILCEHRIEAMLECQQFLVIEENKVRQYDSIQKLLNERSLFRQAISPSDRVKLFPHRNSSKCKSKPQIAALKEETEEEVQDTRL

activation at 10 µM [1]: > 60%
SMILES: Cc1cccc(C)c1-c1cc2nc(n1)NS(=O)(=O)c1cccc(c1)C(=O)N(CC1CCC(C)(C)OC1)[C@H](CC(C)(C)C)CO2 (single isomer, unassigned) [Compound 31]

EC50 (HBE assay, read-out: HBE EC50): < 1 µM | Emax [4]: > 60%
SMILES: Cc1ccc(N2CCCC2C)nc1CN1C(=O)c2cccc(c2)S(=O)(=O)Nc2nc(cc(-c3c(C)cccc3C)n2)OC[C@H]1CC(C)(C)C (stereo in doubt) [Compound 1346]

EC50 (HBE assay, read-out: HBE EC50): < 1 µM | Emax [4]: > 60%
SMILES: Cc1cccc(C)c1-c1cc2nc(n1)NS(=O)(=O)c1cccc(c1)C(=O)N(Cc1cncc(N3CCCC3C)n1)[C@H](CC(C)(C)C)CO2 (stereo in doubt) [Compound 1366]

EC50 (HBE assay, read-out: HBE EC50): < 1 µM | Emax [4]: > 60%
SMILES: Cc1cccc(C)c1-c1cc2nc(n1)NS(=O)(=O)c1cccc(c1)C(=O)N(Cc1cccc(N3CCOC[C@@H]3C)n1)[C@H](CC(C)(C)C)CO2 (stereo in doubt) [Compound 1400]

EC50 (HBE assay, read-out: HBE EC50): < 1 µM | Emax [4]: > 60%
SMILES: Cc1cccc(C)c1-c1cc2nc(n1)NS(=O)(=O)c1cccc(c1)C(=O)N(Cc1cccc(N3[C@H](C)CC[C@@H]3C)n1)[C@H](CC(C)(C)C)CO2 (stereo in doubt) [Compound 1401]

EC50 (HBE assay, read-out: HBE EC50): < 1 µM
SMILES: Cc1cccc(C)c1-c1cc2nc(n1)NS(=O)(=O)c1cccc(c1)C(=O)N(Cc1ncc(N3CC[C@H]3C)cn1)[C@H](CC(C)(C)C)CO2 (stereo in doubt) [Compound 1406]

EC50 (HBE assay, read-out: HBE EC50): < 1 µM
SMILES: Cc1cccc(C)c1-c1cc2nc(n1)NS(=O)(=O)c1cccc(c1)C(=O)N(Cc1cccc(N3CCC[C@@H]3CC(C)C)n1)[C@H](CC(C)(C)C)CO2 (stereo in doubt) [Compound 1429]

activation at 10 µM [5]: > 60%
SMILES: CCC1(CO)CCCN1c1cccc(CN2C(=O)c3cccc(c3)S(=O)(=O)Nc3nc(cc(-c4c(C)cccc4C)n3)OC[C@H]2CC(C)(C)C)n1 (stereo in doubt) [Compound 1458]

activation at 10 µM [5]: > 60%
SMILES: CC[C@@]1(CO)CCCN1c1cccc(CN2C(=O)c3cccc(c3)S(=O)(=O)Nc3nc(cc(-c4c(C)cccc4C)n3)OC[C@H]2CC(C)(C)C)n1 (stereo in doubt) [Compound 1459]

EC50 (HBE assay, read-out: HBE EC50): < 1 µM
SMILES: Cc1cccc(C)c1-c1cc2nc(n1)NS(=O)(=O)c1cccc(c1)C(=O)N(Cc1ccnc(N3CCC[C@H]3C(C)C)n1)[C@H](CC(C)(C)C)CO2 (stereo in doubt) [Compound 1476]

Continued, compound first:

SMILES: Cc1cccc(C)c1-c1cc2nc(n1)NS(=O)(=O)c1cccc(c1)C(=O)N(CC1CCCC(C)(C)O1)[C@H](CC(C)(C)C)CO2 (single isomer, unassigned) [Compound 19]
activation at 10 µM [1]: > 60%

SMILES: Cc1cccc(C)c1-c1cc2nc(n1)NS(=O)(=O)c1cccc(c1)C(=O)N(CC1CCC(C)(C)CO1)[C@H](CC(C)(C)C)CO2 (single isomer, unassigned) [Compound 22]
EC50 (Table 11, read-out: HBE EC50): < 1 µM | Emax [2]: > 60%

SMILES: Cc1cccc(C)c1-c1cc2nc(n1)NS(=O)(=O)c1cccc(c1)C(=O)N(CC1CCC(C)(C)CO1)[C@H](CC(C)(C)C)CO2 (single isomer, unassigned) [Compound 23]
EC50 (Table 11, read-out: HBE EC50): < 1 µM

SMILES: Cc1cccc(C)c1-c1cc2nc(n1)NS(=O)(=O)c1cccc(c1)C(=O)N(C[C@H]1CC(C)(C)CCO1)[C@H](CC(C)(C)C)CO2 (single isomer, unassigned) [Compound 24]
activation at 10 µM [1]: > 60%

SMILES: Cc1cccc(C)c1-c1cc2nc(n1)NS(=O)(=O)c1cccc(c1)C(=O)N(CC1CC(C)(C)CCO1)[C@H](CC(C)(C)C)CO2 (single isomer, unassigned) [Compound 25]
activation at 10 µM [1]: > 60%

SMILES: Cc1cccc(C)c1-c1cc2nc(n1)NS(=O)(=O)c1cccc(c1)C(=O)N(CC1OCCC1(C)C)[C@H](CC(C)(C)C)CO2 (single isomer, unassigned) [Compound 26]
activation at 10 µM [1]: > 60%

SMILES: Cc1cccc(C)c1-c1cc2nc(n1)NS(=O)(=O)c1cccc(c1)C(=O)N(CC1CCOC(C)(C)C1)[C@H](CC(C)(C)C)CO2 (single isomer, unassigned) [Compound 28]
activation at 10 µM [1]: > 60%

SMILES: Cc1cccc(C)c1-c1cc2nc(n1)NS(=O)(=O)c1cccc(c1)C(=O)N(CC1CCC(C)(C)O1)[C@H](CC(C)(C)C)CO2 (single isomer, unassigned) [Compound 33]
activation at 10 µM [1]: > 60%

SMILES: Cc1cccc(C)c1-c1cc2nc(n1)NS(=O)(=O)c1cccc(c1)C(=O)N(CC1CCC(C)(C)O1)[C@H](CC(C)(C)C)CO2 (single isomer, unassigned) [Compound 34]
EC50 (Table 11, read-out: HBE EC50): < 1 µM | Emax [2]: > 60%

SMILES: Cc1cccc(C)c1-c1cc2nc(n1)NS(=O)(=O)c1cccc(c1)C(=O)N(CC1OCCCC1(C)C)[C@H](CC(C)(C)C)CO2 (single isomer, unassigned) [Compound 35]
activation at 10 µM [1]: > 60%

SMILES: Cc1cccc(C)c1-c1cc2nc(n1)NS(=O)(=O)c1cccc(c1)C(=O)N(CC1CC(N3C[C@@H](C)O[C@@H](C)C3)C1)[C@H](CC(C)(C)C)CO2 (single isomer, unassigned) [Compound 63]
EC50 (read-out: HBE EC50, Table 10): < 1 µM

SMILES: Cc1cccc(C)c1-c1cc2nc(n1)NS(=O)(=O)c1cccc(c1)C(=O)N(CC1CC(N3C[C@@H](C)O[C@@H](C)C3)C1)[C@H](CC(C)(C)C)CO2 (single isomer, unassigned) [Compound 64]
EC50 (HBE EC50 (μM), Table 10): < 1 µM | Emax (read-out: HBE Max activity (%)): > 60%

SMILES: Cc1cccc(C)c1-c1cc2nc(n1)NS(=O)(=O)c1cccc(c1)C(=O)N(C[C@H]1CC[C@@H](O)CC1)[C@H](CC(C)(C)C)CO2 (single isomer, unassigned) [Compound 151]
EC50 (Table 10, read-out: HBE EC50): < 1 µM | Emax [3]: > 60%

SMILES: Cc1cccc(C)c1-c1cc2nc(n1)NS(=O)(=O)c1cccc(c1)C(=O)N(C[C@H]1CC[C@@H](O)CC1)[C@H](CC(C)(C)C)CO2 (single isomer, unassigned) [Compound 152]
activation at 10 µM (Table 10, at 10 μM, read-out: HBE activity at 10 (μM) (%)): > 60%

SMILES: Cc1cccc(C)c1-c1cc2nc(n1)NS(=O)(=O)c1cccc(c1)C(=O)N(CC1CCC(N3CCOCC3)CC1)[C@H](CC(C)(C)C)CO2 (single isomer, unassigned) [Compound 153]
EC50 (Table 10, read-out: HBE EC50): < 1 µM

SMILES: Cc1cccc(C)c1-c1cc2nc(n1)NS(=O)(=O)c1cccc(c1)C(=O)N(CC1CCC(N3CCOCC3)CC1)[C@H](CC(C)(C)C)CO2 (single isomer, unassigned) [Compound 154]
EC50 (Table 10, read-out: HBE EC50): < 1 µM | Emax [3]: > 60%

SMILES: CCC(C)Oc1cnc(CN2C(=O)c3cccc(c3)S(=O)(=O)Nc3nc(cc(-c4c(C)cccc4C)n3)OC[C@H]2CC(C)C)nc1 (stereo in doubt) [Compound 1395]
EC50 (HBE assay, read-out: HBE EC50): < 1 µM | Emax [4]: > 60%

SMILES: CO[C@H]1C[C@@H](Oc2cnc(CN3C(=O)c4cccc(c4)S(=O)(=O)Nc4nc(cc(-c5c(C)cccc5C)n4)OC[C@H]3CC(C)C)nc2)C1 (stereo in doubt) [Compound 1462]
EC50 (HBE assay, read-out: HBE EC50): < 1 µM

SMILES: COCC1CCC(C)(C)N1c1cncc(CN2C(=O)c3cccc(c3)S(=O)(=O)Nc3nc(cc(-c4c(C)cccc4C)n3)OC[C@H]2CC(C)(C)C)n1 (stereo in doubt) [Compound 1480]
EC50 (HBE assay, read-out: HBE EC50): < 1 µM | Emax [4]: > 60%

From patent US20240150377A1, “MODULATORS OF CYSTIC FIBROSIS TRANSMEMBRANE CONDUCTANCE REGULATOR” (VERTEX PHARMACEUTICALS INCORPORATED, priority 2020, published 2024)
